The subject of series [1] is Candida auris. Briefly: Broth microdilution antifungal susceptibility (Example 13). In kind it is cell-based. The note with it: Candidozyma auris. (In general: Broth dilution looks for growth in wells or tubes with falling amounts of substance.)
Series [2] has as its system beta-hemolytic streptococci. The experiment in a line: Broth microdilution MIC (Example 11). The note with it: read-out: MIC values.
Series [3] can be described thus: Aerosol testing of BisEDT suspension formulations (aerosol concentration, particle size). It counts as physicochemical. The note with it: Lot # ED268-1-11-01; 25 mg/mL formulation. The text has this:
Objective: The objective of this study was to develop methods for the nose-only inhalation exposures of BisEDT for rodents. The aerosols were generated from suspension formulations of BisEDT in aqueous media (0.5% TWEEN 80® in Sodium Phosphate Buffer, pH 7.4). […] Suspension formulations were created by sonication with neat API with 0.5% TWEEN 80® in Sodium Phosphate Buffer, pH 7.4. This was further refined by adjusting the vehicle to an osmolality of 300 mOsmol/kg. Aerosols were characterized for particle size distribution and aerosol concentration. Aerosol concentration was determined by differential mass and chemical analysis of the aerosol filter samples.
Aerosol Methods: Formulation—Suspension formulations of BisEDT were prepared in 0.5% TWEEN 80® in Sodium Phosphate Buffer, pH 7.4. Suspensions of 2.5, 10, 25, 50, 75 and 100 mg/mL were prepared by sonication with a Covaris sonicator. In later tests, the vehicle was adjusted with sodium chloride to achieve an Osmolality of 300 mOsmol/kg. Suspensions were prepared at 2.5, 50, and 100 mg/mL.
Aerosol concentration was measured at the breathing zone of the exposure system by collection of the aerosol onto 47-mm filters (Whatman GF/A membrane filters). Filter samples were collected at a nominal flowrate of 0.3 L/min. Aerosol mass concentration was determined by differential weight analysis of the filter samples. […]

Series [4] in a line: Particle size of BisEDT microparticles (Nanosizer/Zetasizer). It counts as physicochemical. The note with it: resuspended in 2% Pluronic F-68, sonicated. As for the experimental part:
The dried particulate matter was characterized to assess the particle size properties. Briefly, microparticles were resuspended in 2% Pluronic® F-68 (BASF, Mt. Olive, N.J.) and the suspension was sonicated for 10 minutes in a water bath sonicator at standard setting prior to analysis using a Nanosizer/Zetasizer Nano-S particle analyzer (model ZEN1600 (without zeta-potential measuring capacity), Malvern Instruments, Worcestershire, UK) according to the manufacturer's recommendations.

Series [5] in a line: Rat nose-only inhalation study: whole blood and lung BisEDT. It counts as in vivo, F344 rats. The note with it: single inhalation dose 47 μg/kg, 8 hr. As to the method:
Inhalation Exposure: The initial exposure of BisEDT (Bismuth-1,2-ethanedithiol) was formulated as […] at 100 mg/mL in suspension in 0.5% TWEEN 80®, 10 mM sodium phosphate, pH 7.4, in NaCl (adjusted to approximately 300 mOsm). Aerosols were generated with a commercial compressed air jet nebulizer, PAD LC PLUS®, operated with an inlet pressure of 20 psi.
Detailed gross necropsies were performed on all animals (found dead, moribund, or scheduled necropsy) and consisted of a complete external and internal examination including body orifices and cranial, thoracic, and abdominal organs and tissues. All gross findings will be recorded in descriptive terms. […] Lungs collected and weighed.

Where two headings read alike, the source gives them in different places.

Regarding `CC(S)C(C)S.[Bi]` (stereo not drawn) [BisBDT, bismuth-2,3-butanedithiol], the MIC in series [1] (read-out: MIC0 (complete inhibition), isolate MMX 9862 (Susceptible)) turned out to be 1 µg/mL; in series [1] (read-out: MIC0 (complete inhibition), isolate MMX 9863 (FLU-R, VORI-R)), 2 µg/mL; in series [1] (read-out: MIC0 (complete inhibition), isolate MMX 9864 (FLU-R, VORI-R)), 1 µg/mL; in series [1] (read-out: MIC0 (complete inhibition), isolate MMX 9865 (FLU-R, VORI-R)) it was 2 µg/mL; in series [1] (read-out: MIC0 (complete inhibition), isolate MMX 9866 (FLU-R, VORI-R)) it was 2 µg/mL; in series [1] (read-out: MIC0 (complete inhibition), isolate MMX 9867 (FLU-R, VORI-R)), 2 µg/mL. The MIC in series [1] (read-out: MIC0 (complete inhibition), isolate MMX 9868 (FLU-R, VORI-R)) was 4 µg/mL; in series [1] (read-out: MIC0 (complete inhibition), isolate MMX 9869 (FLU-R, VORI-R)) it was 4 µg/mL; in series [1] (read-out: MIC0 (complete inhibition), isolate MMX 9870 (FLU-R, VORI-R)) it was 2 µg/mL; in series [1] (read-out: MIC0 (complete inhibition), isolate MMX 9871 (Susceptible)), 2 µg/mL; in series [1] (read-out: MIC2 (50% inhibition), isolate MMX 9862 (Susceptible)) it was 0.5 µg/mL; in series [1] (read-out: MIC2 (50% inhibition), isolate MMX 9863 (FLU-R, VORI-R)) it was 1 µg/mL. For the same compound, the MIC is 1 µg/mL in series [1] (read-out: MIC2 (50% inhibition), isolate MMX 9864 (FLU-R, VORI-R), result after 48 hr incubation (insufficient growth at 24 hr)); 1 µg/mL in series [1] (read-out: MIC2 (50% inhibition), isolate MMX 9865 (FLU-R, VORI-R)); 1 µg/mL in series [1] (read-out: MIC2 (50% inhibition), isolate MMX 9866 (FLU-R, VORI-R)); 1 µg/mL in series [1] (read-out: MIC2 (50% inhibition), isolate MMX 9867 (FLU-R, VORI-R)); 1 µg/mL in series [1] (read-out: MIC2 (50% inhibition), isolate MMX 9868 (FLU-R, VORI-R)); 1 µg/mL in series [1] (read-out: MIC2 (50% inhibition), isolate MMX 9869 (FLU-R, VORI-R)). The MIC is 1 µg/mL in series [1] (read-out: MIC2 (50% inhibition), isolate MMX 9870 (FLU-R, VORI-R)); 1 µg/mL in series [1] (read-out: MIC2 (50% inhibition), isolate MMX 9871 (Susceptible)); 0.03 to 2 µg/mL in series [2].
In the case of `C1C[S][Bi]([S]CC[S][Bi]2[S]CC[S]2)[S]1` [BisEDT, bismuth-1,2-ethanedithiol], the “BisEDT Aerosol Conc., average of all extracted concentrations incl. outlier filter” value in series [3] is 64.4 µg/L. The “peak volumetric mean diameter (VMD) of microparticles” value in series [4] was “about 1.3 microns”. Also, in series [5], the “Mean BisEDT Conc, whole blood” value came to 114 ng/mL.

The values above are taken from patent publication US11464749B2, “Bismuth-thiol compositions and methods of use” (Microbion Corporation, priority 2018, dated 2022).
